# Results from paper PMC8740768 (Proceedings of the National Academy of Sciences of the …, 2021).
# Entries after “also recorded” stand apart in the source; their conditions may differ. Like-named read-outs stand apart in the source and are kept apart here.
# B1: protease-associated domain of vacuolar sorting receptor isoform 1 (VSR1-PA) (domain or fragment, Arabidopsis thaliana, UniProt P93026 20-182, looked up)
# chain: RFVVEKNNLKVTSPDSIKGIYECAIGNFGVPQYGGTLVGTVVYPKSNQKACKSYSDFDISFKSKPGRLPTFVLIDRGDCYFTLKAWIAQQAGAAAILVADSKAEPLITMDTPEEDKSDADYLQNITIPSALITKTLGDSIKSALSGGDMVNMKLDWTESVPHP
# B2: C-terminal peptide of CRU1 (YRVAAA) (peptide)
# peptide: YRVAAA
# B3: YSDRFV peptide derived from the ctVSD of VL22 (peptide)
# peptide: YSDRFV
# B4: C-terminal pentapeptide (468RVAAA472) of CRU1 (peptide)
# peptide: RVAAA
# Legend:
# soybean seeds = details: cited from earlier work
# VSR1-PA = details: cited from earlier work
# VSR1-NT [1] = assay: Competitive peptide pull-down: elution of Cru1-ctVSD-bound VSR1-NT; set-up: species or system Arabidopsis thaliana; details: 2 mM peptide in VSR binding buffer, 4C, 4 hours, T7 immunoblot
# VSR1-NT [2] = assay: Competitive peptide pull-down: elution of aleurain-ssVSD-bound VSR1-NT; set-up: species or system Arabidopsis thaliana; details: 2 mM peptide in VSR binding buffer, 4C, 4 hours; T7 immunoblot
# PSV = details: C terminus of phaseolin; cited from earlier work
# phaseolin = details: cited from earlier work
# VSR1 = details: cited from earlier work
# VSR1-PA-R95M = assay: Thermal shift assay; format: binding, Arabidopsis thaliana; details: 5 mM peptide, 50 μM VSR1-PA-R95M, pH 7.1; n = 3; ns P > 0.05
# [3] = target: B2; assay: thermal shift assay
# [4] = target: B1; assay: differential scanning fluorimetry, isothermal analysis
# [5] = target: B1; assay: as above; remark: listed apart in the source
# [6] = target: B1; assay: crystal structure
molecule,measurement,setting,value
612PLSSILRAFY621,Targeting of GFP to the PSV,soybean seeds,sufficient to target GFP to the PSV in soybean seeds
"ADSNPIRPVT [aleurain-ssVSD, reference compound]",Interaction of VSR1-PA with ssVSD,VSR1-PA,VSR1-PA binds to the residues (ADS) preceding the NPIR motif
same,Elution of Cru1-ctVSD-bound VSR1-NT,VSR1-NT [1],not by aleurain-ssVSD
same,Elution of aleurain-ssVSD-bound VSR1-NT,VSR1-NT [2],eluted
AFVY,Targeting of seed proteins to the PSV,PSV,essential for targeting seed proteins to the PSV
same,Effect of removing the C-terminal residues on phaseolin,phaseolin,abolished aggregation of phaseolin and missorted it to the extracellular space
SYGRPRVAAA [Cru1],Binding to VSR1,VSR1; earlier studies,VSR1 could bind to the C-terminal peptide of CRU1; also recorded: VSR1 can bind to the C-terminal sequence
same,Calcium dependence of binding to VSR1,VSR1; pull-down assay,calcium-dependent
same,Elution of Cru1-ctVSD-bound VSR1-NT,VSR1-NT [1]; listed as Cru1-ctVSD,only eluted by ctVSD of CRU1
same,Elution of aleurain-ssVSD-bound VSR1-NT,VSR1-NT [2],eluted
SYGRPRVAAAP [Cru1+P],Elution of Cru1-ctVSD-bound VSR1-NT,VSR1-NT [1],not by aleurain-ssVSD and Cru1+P
same,Elution of aleurain-ssVSD-bound VSR1-NT,VSR1-NT [2],not eluted
YRVAAA,Change in Tm of VSR1-PA-R95M (in words),VSR1-PA-R95M,no significant change in the Tm of VSR1-PA-R95M
B1,increase of Tm,[3],5.3 °C
B2,Kd,[4],9600 µM
same,Kd,[5],2600 µM
B3,Kd,[4],3200 µM
same,Kd,[5],1000 µM
B4,binding result,[6],binds
